Results: US20250302809A1, “GLP1 PHARMACEUTICAL COMPOSITIONS” (Eli Lilly and Company, priority 2022, published 2025)

What was measured:
pKa of GLP1RA = format: physicochemical; conditions: weak acid
[1] = aqueous solubility across the physiologic pH range and in simulated physiological fluids; format: physicochemical; conditions: across the physiologic pH range as well as in simulated physiological fluids

pKa (pKa of GLP1RA): 5.1
aqueous solubility [1]: very low
Structure (SMILES): Cc1cc(-n2nc3c(c2-n2ccn(-c4ccc5c(cnn5C)c4F)c2=O)[C@H](C)N(C(=O)c2cc4cc([C@H]5CCOC(C)(C)C5)ccc4n2[C@@]2(c4noc(=O)[nH]4)C[C@@H]2C)CC3)cc(C)c1F [GLP1RA, 3-[(1S,2S)-1-[5-[(4S)-2,2-dimethyloxan-4-yl]-2-[(4S)-2-(4-fluoro-3,5-dimethylphenyl)-3-[3-(4-fluoro-1-methylindazol-5-yl)-2-oxoimidazol-1-yl]-4-methyl-6,7-dihydro-4H-pyrazolo[4,3-c]pyridine-5-carbonyl]indol-1-yl]-2-methylcyclopropyl]-4H-1,2,4-oxadiazol-5-one]
